Measurements published in US11795460B2, “Compositions and methods for TTR gene editing and treating ATTR amyloidosis” (Intellia Therapeutics, Inc., priority 2017, dated 2023).

Key:
TTR [1] = test: TTR editing in primary cyno hepatocytes electroporated with Spy Cas9 protein and dgRNAs (Tables 10, 11); format: cell-based, cynomolgus monkey
Protocol: (§1) Primary liver hepatocytes. Primary human liver hepatocytes (PHH) and primary cynomolgus liver hepatocytes (PCH) (Gibco) were cultured per the manufacturer's protocol (Invitrogen, protocol 11.28.2012). In brief, the cells were thawed and resuspended in hepatocyte thawing medium with supplements (Gibco, Cat. CM7000) followed by centrifugation at 100 g for 10 minutes for human and 80 g for 4 minutes for cyno. The supernatant was discarded and the pelleted cells resuspended in hepatocyte plating medium plus supplement pack (Invitrogen, Cat. A1217601 and CM3000). Cells were counted and plated on Bio-coat collagen I coated 96-well plates (ThermoFisher, Cat. 877272) at a density of 33,000 cells/well for human or 60,000 cells/well for cyno (or 65,000 cells/well when assaying effects on TTR protein, described further below). Plated cells were allowed to settle and adhere for 6 or 24 hours in a tissue culture incubator at 37° C. and 5% CO2 atmosphere. After incubation cells were checked for monolayer formation and media was replaced with hepatocyte culture medium with serum-free supplement pack (Invitrogen, Cat. A1217601 and CM4000).
(§2) […] formation was performed prior to electroporation or transfection of Spy Cas9 protein loaded with guide RNAs (RNPs) onto cells. For dual guide (dgRNAs), individual crRNA and trRNA was pre-annealed by mixing equivalent amounts of reagent and incubating at 95° C. for 2 min and cooling to room temperature. Single guide (sgRNAs) were boiled at 95° C. for 2 min and cooling to room temperature. The boiled dgRNA or sgRNA was incubated with Spy Cas9 protein in Optimem for 10 minutes at room temperature to form a ribonucleoprotein (RNP) complex.
(§3) For RNP electroporation into primary human and cyno hepatocytes, the cells are thawed and resuspended in Lonza electroporation Primary Cell P3 buffer at a concentration of 2500 cells per μL for human hepatocytes and 3500 cells per μL for cyno hepatocytes. A volume of 20 μL of resuspended cells and 5 μL of RNP are mixed together per guide. 20 μL of the mixture is placed into a Lonza electroporation plate. The cells were electroporated using the Lonza nucleofector with the preset protocol EX-147. Post electroporation, the cells are transferred into a Biocoat plate containing pre-warmed maintenance media and placed in a tissue culture incubator at 37° C. and 5% CO2.
(§4) Transfected cells were harvested post-transfection at 24, 48, or 72 hours. The genomic DNA was extracted from each well of a 96-well plate using 50 μL/well BuccalAmp DNA Extraction solution (Epicentre, Cat. QE09050) per manufacturer's protocol. All DNA samples were subjected to PCR and subsequent NGS analyses, as described herein.
(§5) To quantitatively determine the efficiency of editing at the target location in the genome, sequencing was utilized to identify the presence of insertions and deletions introduced by gene editing.
(§6) Primers were designed around the target site within the gene of interest (e.g. TTR), and the genomic area of interest was amplified.
(§7) Additional PCR was performed per the manufacturer's protocols (Illumina) to add chemistry for sequencing. The amplicons were sequenced on an Illumina MiSeq instrument. The reads were aligned to a reference genome (e.g., the human reference genome (hg38), the cynomologus reference genome (mf5), the rat reference genome (rn6), or the mouse reference genome (mm10)) after eliminating those having low quality scores. The resulting files containing the reads were mapped to the reference genome (BAM files), where reads that overlapped the target region of interest were selected and the number of wild type reads versus the number of reads which contain an insertion, substitution, or deletion was calculated.
(§8) The editing percentage (e.g., the “editing efficiency” or “percent editing” or “indel frequency”) is defined as the total number of sequence reads with insertions/deletions (“indels”) or substitutions over the total number of sequence reads, including wild type. […]

TTR [2] = test: TTR editing in primary human hepatocytes transfected with Spy Cas9 protein (RNP) loaded with dgRNAs (Table 8); format: cell-based; details: dgRNA transfected with Spy Cas9 protein (RNP)
Protocol: as §1, §2
For RNP lipoplex transfections, cells were transfected with Lipofectamine RNAiMAX (ThermoFisher, Cat. 13778150) per the manufacturer's protocol. Cells were transfected with an RNP containing Spy Cas9 (10 nM), individual guide (10 nM), tracer RNA (10 nM), Lipofectamine RNAiMAX (1.0 μL/well) and OptiMem. RNP formation was performed as described above.
as §4, §5, §6, §7
(§9) The editing percentage (e.g., the “editing efficiency” or “percent editing” or “indel frequency”) is defined as the total number of sequence reads with insertions/deletions (“indels”) or substitutions over the total number of sequence reads, including wild type.
Guides in dgRNA format targeting human TTR and the cynomologus matched sequences were delivered to HEK293 Cas9, HUH7 and HepG2 cell lines, as well as primary human hepatocytes and primary cynomolgus monkey hepatocytes as described in Example 1. […]

TTR [3] = test: TTR editing in primary human hepatocytes transfected with Spy Cas9 mRNA and dgRNAs (Table 9); format: cell-based; details: dgRNA co-transfected with Spy Cas9 mRNA (SEQ ID NO:2)
Protocol: as §1
Lipofectamine RNAiMax (ThermoFisher, Cat. 13778150) based transfections were conducted as per the manufacturer's protocol. Cells were sequentially transfected with a lipoplex containing Spy Cas9 mRNA (100 ng), Lipofectamine RNAiMax (0.4 μL/well) and OptiMem followed by a separate lipoplex containing crRNA (25 nM) and tracer RNA (25 nM) or sgRNA (25 nM), Lipofectamine RNAiMax (0.4 μL/well) and OptiMem.
as §4, §5, §6, §7, §9
(§10) Guides in dgRNA format targeting human TTR and the cynomologus matched sequences were delivered to HEK293 Cas9, HUH7 and HepG2 cell lines, as well as primary human hepatocytes and primary cynomolgus monkey hepatocytes as described in Example 1. Percent editing was determined for crRNAs comprising each guide sequence across each cell type and the guide sequences were then rank ordered based on highest % edit. The screening data for the guide sequences in Table 1 in all five cell lines are listed below (Table 4 through 11).

TTR [4] = test: TTR editing in HepG2 cells transfected with Spy Cas9 mRNA and dgRNAs (Table 6); format: cell-based, human; details: HepG2 cells co-transfected with Spy Cas9 mRNA (SEQ ID NO:2) and dgRNAs
Protocol: HepG2 cell line. The human hepatocellular carcinoma cell line HepG2 (American Type Culture Collection, Cat. HB-8065) was cultured in DMEM media supplemented with 10% fetal bovine serum. Cells were counted and plated on Bio-coat collagen I coated 96-well plates (ThermoFisher, Cat. 877272) at a density of 10,000 cells/well in a 96-well plate 24 hours prior to transfection. Cells were transfected with Lipofectamine 2000 (ThermoFisher, Cat. 11668019) per the manufacturer's protocol. Cells were sequentially transfected with lipoplex containing Spy Cas9 mRNA (100 ng), Lipofectamine 2000 (0.2 μL/well) and OptiMem followed by a separate lipoplex containing individual crRNA (25 nM), tracer RNA (25 nM), Lipofectamine 2000 (0.2 μL/well) and OptiMem.
as §4, §5, §6, §7, §9, §10

TTR [5] = test: TTR editing in primary human hepatocytes electroporated with Spy Cas9 protein loaded with dgRNAs (Table 7); format: cell-based; details: dgRNA electroporated with Spy Cas9 protein (RNP)
Protocol: as §1, §2, §3, §4, §5, §6, §7, §8

off-target genomic sites = test: Off-target oligo insertion based assay in HEK293_Cas9 cells, dgRNAs and sgRNAs (Tables 23, 24); format: cell-based, human; details: Table 23; TTR dgRNAs in HekCas9 cells, oligo insertion based assay
Protocol: An oligo insertion based assay (See, e.g., Tsai et al., Nature Biotechnology 33, 187-197; 2015) was used to determine potential off-target genomic sites cleaved by Cas9 targeting TTR. Forty-five dgRNAs from Table 1 (and two control guides with known off-target profiles) were screened in the HEK293 Cas9 cells. The human embryonic kidney adenocarcinoma cell line HEK293 constitutively expressing Spy Cas9 (“HEK293_Cas9”) was cultured in DMEM media supplemented with 10% fetal bovine serum and 500 μg/ml G418. Cells were plated at a density of 30,000 cells/well in a 96-well plate 24 hours prior to transfection. Cells were transfected with Lipofectamine RNAiMAX (ThermoFisher, Cat. 13778150) per the manufacturer's protocol. Cells were transfected with a lipoplex containing individual crRNA (15 nM), trRNA (15 nM), and donor oligo with (10 nM) Lipofectamine RNAiMAX (0.3 μL/well) and OptiMem. Cells were lysed 24 hours post transfection and genomic DNA was extracting using Zymo's Quick gDNA 96 Extraction kit (catalog #D3012) following the manufacturer's recommended protocol. The gDNA was quantified using the Qubit High Sensitivity dsDNA kit (Life Technologies). Libraries were prepared per the previously described method in Tsai et al, 2015 with minor modifications. Sequencing was performed on Illumina's MiSeq and HiSeq 2500. The assay identified potential off-target sites for some of the crRNAs which are plotted in FIG. 2.
Additionally, a subset of the guides was assessed for off-target potential as modified sgRNAs in the Hek_Cas9 cells via the oligo based insertion method described above. The off-target results were plotted in FIG. 4.

[6] = primary cyno hepatocytes electroporated with Spy Cas9 protein (RNP) and cyno specific dgRNAs
[7] = Table 10, primary cyno hepatocytes electroporated with Spy Cas9 protein (RNP) and dgRNAs

## AAAGUUCUAGAUGCCGUCCG (tested as dual guide RNA, chemistry not given here) [CR005369]
TTR [1]; [6]
  Avg % Deletion: 33.92%
  Avg % Edit: 42.01%
  Avg % Insert: 8.09%

## AAGUGACUUCCAGUAAGAUU (tested as dual guide RNA, chemistry not given here) [CR005371]
TTR [1]; [6]
  Avg % Deletion: 8.10%
  Avg % Edit: 8.42%
  Avg % Insert: 0.31%

## ACACAAAUACCAGUCCAGCG (tested as dual guide RNA, chemistry not given here) [CR000689]
TTR [1]; [6]
  Avg % Deletion: 6.30%
  Avg % Edit: 24.41%
  Avg % Insert: 18.11%

## ACUUGUCUUCUCUAUACCCA (tested as dual guide RNA, chemistry not given here) [CR005370]
TTR [1]; [6]
  Avg % Deletion: 62.93%
  Avg % Edit: 63.52%
  Avg % Insert: 0.59%

## AGCCGUGGUGGAAUAGGAGU (tested as dual guide RNA, chemistry not given here) [CR005299]
TTR [2]
  Avg % Deletion: 0.58%
  Avg % Edit: 19.37%
  Avg % Insert: 18.79%
TTR [3]
  Avg % Deletion: 0.60%
  Avg % Edit: 9.43%
  Avg % Insert: 8.93%
TTR [4]
  Avg % Deletion: 2.30%
  Avg % Edit: 38.61%
  Avg % Insert: 36.32%
TTR [1]; [7]
  Avg % Deletion: 0.26%
  Avg % Edit: 13.48%
  Avg % Insert: 13.23%
TTR [5]
  Avg % Deletion: 0.35%
  Avg % Edit: 8.65%
  Avg % Insert: 8.30%

## AUACCAGUCCAGCGAGGCAG (tested as dual guide RNA, chemistry not given here) [CR005366]
TTR [1]; [6]
  Avg % Deletion: 76.67%
  Avg % Edit: 77.00%
  Avg % Insert: 0.33%

## CAUUGACAGCAGGACUGCCU (tested as dual guide RNA, chemistry not given here) [CR005365]
TTR [1]; [6]
  Avg % Deletion: 64.85%
  Avg % Edit: 64.94%
  Avg % Insert: 0.10%

## CCAGUCCAGCGAGGCAGAGG (tested as dual guide RNA, chemistry not given here) [CR005367]
TTR [1]; [6]
  Avg % Deletion: 50.26%
  Avg % Edit: 50.79%
  Avg % Insert: 0.53%

## CCUCCUCUGCCUCGCUGGAC (tested as dual guide RNA, chemistry not given here) [CR005368]
TTR [1]; [6]
  Avg % Deletion: 27.27%
  Avg % Edit: 27.60%
  Avg % Insert: 0.33%

## GGCCGUGCAUGUGUUCAGAA (tested as dual guide RNA, chemistry not given here) [CR005304]
TTR [2]
  Avg % Deletion: 45.13%
  Avg % Edit: 49.45%
  Avg % Insert: 4.32%
off-target genomic sites
  # Sites (off-target integration sites detected): 0
TTR [3]
  Avg % Deletion: 44.47%
  Avg % Edit: 45.27%
  Avg % Insert: 0.83%
TTR [4]
  Avg % Deletion: 54.75%
  Avg % Edit: 62.82%
  Avg % Insert: 8.07%
TTR [5]
  Avg % Deletion: 61.63%
  Avg % Edit: 67.00%
  Avg % Insert: 5.53%

## UAUAGGAAAACCAGUGAGUC (tested as dual guide RNA, chemistry not given here) [CR005305]
TTR [2]
  Avg % Deletion: 0.34%
  Avg % Edit: 7.07%
  Avg % Insert: 6.73%
TTR [3]
  Avg % Deletion: 1.60%
  Avg % Edit: 7.53%
  Avg % Insert: 5.93%
TTR [4]
  Avg % Deletion: 1.21%
  Avg % Edit: 13.51%
  Avg % Insert: 12.30%
TTR [1]; [7]
  Avg % Deletion: 0.15%
  Avg % Edit: 11.28%
  Avg % Insert: 11.13%
TTR [5]
  Avg % Deletion: 0.40%
  Avg % Edit: 3.83%
  Avg % Insert: 3.53%

## UGUCUGUCUUCUCUCAUAGG (tested as dual guide RNA, chemistry not given here) [CR005307]
TTR [2]
  Avg % Deletion: 8.55%
  Avg % Edit: 18.73%
  Avg % Insert: 10.18%
TTR [3]
  Avg % Deletion: 9.30%
  Avg % Edit: 12.90%
  Avg % Insert: 3.67%
TTR [4]
  Avg % Deletion: 14.33%
  Avg % Edit: 22.03%
  Avg % Insert: 7.70%
TTR [1]; [7]
  Avg % Deletion: 2.55%
  Avg % Edit: 4.56%
  Avg % Insert: 2.01%
TTR [5]
  Avg % Deletion: 3.00%
  Avg % Edit: 8.17%
  Avg % Insert: 5.20%
